Experimental findings from publication PMC5546919 (The Journal of organic chemistry, 2010) are described below.

Common to all, as to type: biochemical
Experiment [1] concerns the target T1, human 20S proteasome, chymotrypsin-like (CT-L) activity (Homo sapiens, UniProt P28074).
T1 sequence (P28074 60-263): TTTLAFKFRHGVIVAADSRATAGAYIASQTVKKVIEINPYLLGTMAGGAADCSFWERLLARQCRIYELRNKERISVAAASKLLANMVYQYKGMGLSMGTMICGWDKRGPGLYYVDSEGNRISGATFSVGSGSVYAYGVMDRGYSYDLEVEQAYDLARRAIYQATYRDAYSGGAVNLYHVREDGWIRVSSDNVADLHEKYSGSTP
Description: Proteasome-Glo luminogenic assay, CT-L substrate.

In experiment [2] the target is T2, human 26S proteasome, chymotrypsin-like (CT-L) activity (Homo sapiens, UniProt P28074).
T2 sequence (P28074 60-263): T1 sequence (P28074 60-263)
Description: Proteasome-Glo luminogenic assay, CT-L substrate.

For experiment [3], the target named is T3, human 20S proteasome, caspase-like (C-L) activity (Homo sapiens, UniProt P28072).
T3 sequence (P28072 35-239): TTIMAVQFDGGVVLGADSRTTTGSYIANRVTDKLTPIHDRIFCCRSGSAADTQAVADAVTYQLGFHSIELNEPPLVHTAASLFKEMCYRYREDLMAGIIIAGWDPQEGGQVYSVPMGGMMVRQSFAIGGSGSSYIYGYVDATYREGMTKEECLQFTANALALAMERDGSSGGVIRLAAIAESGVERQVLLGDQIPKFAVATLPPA
Kind of experiment: Proteasome-Glo luminogenic assay, C-L substrate.

In experiment [4] the target is T4, human 20S proteasome, trypsin-like (T-L) activity (Homo sapiens, UniProt Q99436).
T4 sequence (Q99436 44-277): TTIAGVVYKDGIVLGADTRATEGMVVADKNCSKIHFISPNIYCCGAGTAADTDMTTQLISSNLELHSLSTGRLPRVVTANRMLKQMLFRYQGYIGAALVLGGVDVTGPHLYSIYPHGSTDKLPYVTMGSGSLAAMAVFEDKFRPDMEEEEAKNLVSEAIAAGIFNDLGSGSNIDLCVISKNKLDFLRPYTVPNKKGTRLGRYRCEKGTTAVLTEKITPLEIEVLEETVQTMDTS
Description: Proteasome-Glo luminogenic assay, T-L substrate.

Experiment [5] deals with T5, human 26S proteasome, caspase-like (C-L) activity (Homo sapiens, UniProt P28072).
T5 sequence (P28072 35-239): T3 sequence (P28072 35-239)
Description: Proteasome-Glo luminogenic assay, C-L substrate.

For experiment [6], the target named is T6, human 26S proteasome, trypsin-like (T-L) activity (Homo sapiens, UniProt Q99436).
T6 sequence (Q99436 44-277): T4 sequence (Q99436 44-277)
Description: Proteasome-Glo luminogenic assay, T-L substrate.

A word on the IC50: it is the concentration at which inhibition is half-maximal. Read a high IC50 as weaker potency in that assay. In the case of `CCCCCCC1C(=O)NC2(C(O)C3C=CCCC3)C(=O)OC12C` (racemic) [(±)-2, rac-cinnabaramide A], the 50% inhibitory concentration (IC50) in experiment [1] is 2.8 ± 0.6 nM; in experiment [2], 2.2 ± 0.04 nM; in experiment [3] it was 125 ± 12 nM; in experiment [4], 260 ± 29 nM.
Regarding `C[C@@]12OC(=O)[C@]1([C@@H](O)[C@@H]1C=CCCC1)NC(=O)[C@@H]2CCCl` [1a, (−)-salino A], the IC50 in experiment [3] was determined as 111 ± 22 nM; in experiment [4], 39 ± 7 nM; in experiment [5], 156 ± 18 nM; in experiment [6], 37 ± 16 nM.
As to `C[C@@]12OC(=O)[C@]1([C@@H](O)[C@@H]1C=CCCC1)NC(=O)[C@@H]2CCCCl` [compound 54, (−)-homosalino], the IC50 in experiment [3] is 144 ± 12 nM; in experiment [4], 118 ± 28 nM; in experiment [5], 188 ± 3 nM; in experiment [6], 125 ± 30 nM.
